Results reported in ChEMBL document CHEMBL1201862, “PubChem BioAssay data set” (2004).
Calls of active or inactive are those of the source.

Tests used:
[1] = P. falciparum 3D7-ScDHODH growth inhibitors, dose response, SYBR Green, dry powder samples (AID 1159570); assay type: functional, cell-based;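 further: parasite growth measured after 72 hours of compound exposure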
[2] = P. falciparum Dd2 growth inhibitors, dose response, SYBR Green, cherry-picked samples (AID 1159567); assay type: functional, cell-based
[3] = P. falciparum Dd2 growth inhibitors, dose response, SYBR Green, dry powder samples (AID 1159566); assay type: functional, cell-based;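 further: potency for growth inhibition with lower SYBR green DNA signal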
[4] = P. falciparum ATP4 D1247Y mutant growth inhibitors, dose response, NITD609-resistant line, SYBR Green, dry powder (AID 1159571); assay type: functional, cell-based;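 further: parasites synchronized at ring stage by sorbitol before testing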
[5] = biological target: DNA dC->dU-editing enzyme APOBEC-3A (Homo sapiens, UniProt P31941); assay: Dose Response confirmation of small molecule APOBEC3A DNA Deaminase Inhibitors via a fluorescence-based single-stranded DNA deaminase assay. [Related pubchem assays (depositor defined):AID493011, AID493024]; assay type: functional
DNA dC->dU-editing enzyme APOBEC-3A, sequence (P31941 whole entry): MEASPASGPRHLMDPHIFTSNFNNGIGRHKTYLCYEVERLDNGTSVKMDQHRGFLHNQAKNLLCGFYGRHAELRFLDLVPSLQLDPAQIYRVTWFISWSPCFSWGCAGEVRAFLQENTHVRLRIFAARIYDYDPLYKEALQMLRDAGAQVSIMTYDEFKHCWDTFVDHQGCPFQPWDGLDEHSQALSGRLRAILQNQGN

[6] = biological target: DNA dC->dU-editing enzyme APOBEC-3G (Homo sapiens, UniProt Q9HC16); assay type: functional;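 further: Dose-response counterscreen measuring inhibition of APOBEC3G DNA deaminase activity, run while confirming APOBEC3A inhibitors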
DNA dC->dU-editing enzyme APOBEC-3G, sequence (Q9HC16 whole entry): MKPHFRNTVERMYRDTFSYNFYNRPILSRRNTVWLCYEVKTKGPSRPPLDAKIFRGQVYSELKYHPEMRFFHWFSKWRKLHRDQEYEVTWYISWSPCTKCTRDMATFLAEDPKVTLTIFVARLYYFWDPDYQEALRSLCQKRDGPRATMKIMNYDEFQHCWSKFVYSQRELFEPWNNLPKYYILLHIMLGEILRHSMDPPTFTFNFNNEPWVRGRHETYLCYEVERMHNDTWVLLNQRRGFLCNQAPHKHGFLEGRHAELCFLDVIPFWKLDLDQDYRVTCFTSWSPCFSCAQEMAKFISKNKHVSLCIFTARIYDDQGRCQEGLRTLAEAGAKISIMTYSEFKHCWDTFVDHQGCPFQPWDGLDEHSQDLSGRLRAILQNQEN

[7] = microbe, parasite or virus in culture; assay type: functional; conditions: Mycobacterium tuberculosis
[8] = THP-1 cell cytotoxicity, dose response, cytotoxicity control for Vif-APOBEC3G degradation inhibitor project, THP-1 cells (AID 1117359); assay type: functional; conditions: Human immunodeficiency virus 1, THP-1
[9] = inhibitors of intracellular T. cruzi replication, confirmation, NIH3T3 host cells, beta-gal luminescence (AID 2044); assay type: functional, cell-based;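 further: intracellular parasites grown in NIH/3T3 mouse fibroblasts as host cells; luminescent beta-galactosidase reporter signal from transgenic T. cruzi replicating inside host cells; inhibitors lower the luminescence signal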
[10] = cytotoxicity toward NIH3T3 fibroblasts, dose response, counter-screen, cell-based, ATP luminescence, mouse fibroblasts (AID 2010); assay type: functional;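 further: cells exposed to compound for about 90 hours before reading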
[11] = biological target: T1, Cytochrome P450 1A2 (Homo sapiens, UniProt P05177);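 further: PubChem cytochrome P450 panel assay, CYP1A2 panel member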
T1 sequence (P05177 whole entry): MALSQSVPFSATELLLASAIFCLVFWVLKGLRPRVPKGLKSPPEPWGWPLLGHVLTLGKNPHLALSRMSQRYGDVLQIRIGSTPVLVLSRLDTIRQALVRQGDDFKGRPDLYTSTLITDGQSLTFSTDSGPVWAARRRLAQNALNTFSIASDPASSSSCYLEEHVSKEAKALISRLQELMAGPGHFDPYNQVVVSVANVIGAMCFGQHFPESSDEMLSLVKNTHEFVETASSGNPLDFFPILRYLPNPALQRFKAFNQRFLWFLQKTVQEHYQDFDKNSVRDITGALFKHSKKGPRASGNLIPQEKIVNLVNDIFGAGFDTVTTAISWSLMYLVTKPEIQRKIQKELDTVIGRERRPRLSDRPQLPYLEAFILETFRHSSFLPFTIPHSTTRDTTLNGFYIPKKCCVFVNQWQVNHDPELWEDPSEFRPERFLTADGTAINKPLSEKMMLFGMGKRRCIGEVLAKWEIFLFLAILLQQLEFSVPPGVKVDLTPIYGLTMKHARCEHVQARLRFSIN

[12] = biological target: Cytochrome P450 2C9 (Homo sapiens, UniProt P11712)
Cytochrome P450 2C9, sequence (P11712 whole entry): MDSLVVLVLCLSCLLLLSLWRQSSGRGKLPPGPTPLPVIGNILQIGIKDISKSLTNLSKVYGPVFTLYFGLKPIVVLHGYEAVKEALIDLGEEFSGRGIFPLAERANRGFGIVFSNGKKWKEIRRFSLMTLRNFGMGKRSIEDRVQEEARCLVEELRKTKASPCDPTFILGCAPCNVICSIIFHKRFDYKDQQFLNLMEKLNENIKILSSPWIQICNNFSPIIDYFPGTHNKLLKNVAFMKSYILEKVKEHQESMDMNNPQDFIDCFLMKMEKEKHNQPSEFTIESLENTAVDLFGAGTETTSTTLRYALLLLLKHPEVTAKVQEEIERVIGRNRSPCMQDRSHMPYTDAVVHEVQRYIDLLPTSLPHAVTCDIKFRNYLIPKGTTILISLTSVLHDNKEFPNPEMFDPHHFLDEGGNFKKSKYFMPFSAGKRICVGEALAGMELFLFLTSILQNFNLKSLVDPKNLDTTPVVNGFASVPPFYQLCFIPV

[13] = biological target: T2, Aminopeptidase N (Plasmodium falciparum FcB1/Columbia, UniProt O96935); assay: P. falciparum M1AAP inhibitors, biochemical, fluorogenic H-Leu-NHMec substrate, 1536-well (AID 1445); design: species or system Plasmodium falciparum 3D7, 3D7
T2 sequence (O96935 whole entry): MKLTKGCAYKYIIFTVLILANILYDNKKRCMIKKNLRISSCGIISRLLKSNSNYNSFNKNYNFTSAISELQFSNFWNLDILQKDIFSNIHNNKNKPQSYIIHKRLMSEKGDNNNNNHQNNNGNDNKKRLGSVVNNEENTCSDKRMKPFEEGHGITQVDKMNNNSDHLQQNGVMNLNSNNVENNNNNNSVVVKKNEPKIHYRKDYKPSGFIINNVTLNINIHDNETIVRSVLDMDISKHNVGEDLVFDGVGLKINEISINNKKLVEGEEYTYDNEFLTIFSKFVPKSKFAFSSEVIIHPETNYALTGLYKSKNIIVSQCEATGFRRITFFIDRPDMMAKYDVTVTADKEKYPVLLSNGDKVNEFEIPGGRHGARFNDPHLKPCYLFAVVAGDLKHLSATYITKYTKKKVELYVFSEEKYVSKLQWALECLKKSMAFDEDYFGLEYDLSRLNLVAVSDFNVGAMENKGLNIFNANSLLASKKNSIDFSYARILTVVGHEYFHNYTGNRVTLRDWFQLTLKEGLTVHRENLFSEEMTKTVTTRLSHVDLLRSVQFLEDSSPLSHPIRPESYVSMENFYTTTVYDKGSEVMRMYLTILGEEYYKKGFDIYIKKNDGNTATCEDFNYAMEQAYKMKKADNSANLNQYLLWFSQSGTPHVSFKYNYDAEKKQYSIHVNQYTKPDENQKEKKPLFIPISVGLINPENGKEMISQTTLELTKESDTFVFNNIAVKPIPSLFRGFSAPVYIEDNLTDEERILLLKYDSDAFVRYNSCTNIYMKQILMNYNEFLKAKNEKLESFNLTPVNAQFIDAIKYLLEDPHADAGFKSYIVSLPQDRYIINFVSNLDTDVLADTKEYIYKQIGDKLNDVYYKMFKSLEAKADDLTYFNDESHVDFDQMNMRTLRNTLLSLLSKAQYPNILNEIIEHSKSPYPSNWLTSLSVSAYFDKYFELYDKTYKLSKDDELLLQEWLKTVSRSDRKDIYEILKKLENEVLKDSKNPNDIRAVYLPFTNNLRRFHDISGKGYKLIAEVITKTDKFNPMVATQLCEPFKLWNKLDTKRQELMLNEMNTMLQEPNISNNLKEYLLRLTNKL

[14] = test system: BJ; assay: cells; assay type: functional, cell-based; conditions: Homo sapiens
[15] = cytotoxicity in HEK-293T cells, dose response, cytotoxicity control for TCR NF-kB inhibitor project, luminescence, T-cell screen hits (AID 489026); assay type: functional, cell-based;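 further: cells exposed to compound about 14 hours before the viability readout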
[16] = biological target: Cytochrome P450 2C19 (Homo sapiens, UniProt P33261); assay: Cytochrome panel assay with activity outcomes. Panel member name: p450-cyp2c19 Compounds with AC50 equal or less than 10 uM are considered active; assay type: functional; conditions: read-out: AC50
Cytochrome P450 2C19, sequence (P33261 whole entry): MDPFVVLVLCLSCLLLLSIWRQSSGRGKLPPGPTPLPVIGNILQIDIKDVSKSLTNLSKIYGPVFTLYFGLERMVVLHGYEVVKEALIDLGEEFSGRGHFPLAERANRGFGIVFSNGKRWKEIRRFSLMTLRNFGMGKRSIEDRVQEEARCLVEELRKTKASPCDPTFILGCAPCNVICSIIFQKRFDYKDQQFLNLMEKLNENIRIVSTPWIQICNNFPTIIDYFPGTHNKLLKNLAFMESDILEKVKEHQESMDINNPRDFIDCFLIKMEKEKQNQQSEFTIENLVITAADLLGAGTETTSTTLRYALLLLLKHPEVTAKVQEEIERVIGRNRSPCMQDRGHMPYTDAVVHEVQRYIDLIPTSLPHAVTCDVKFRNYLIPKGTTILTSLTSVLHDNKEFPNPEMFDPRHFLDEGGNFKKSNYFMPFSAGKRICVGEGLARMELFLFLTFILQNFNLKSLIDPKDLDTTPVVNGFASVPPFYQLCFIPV

[17] = biological target: Cytochrome P450 3A4 (Homo sapiens, UniProt P08684);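 further: CYP3A4 tested as one member of a cytochrome P450 panel screen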
Cytochrome P450 3A4, sequence (P08684 whole entry): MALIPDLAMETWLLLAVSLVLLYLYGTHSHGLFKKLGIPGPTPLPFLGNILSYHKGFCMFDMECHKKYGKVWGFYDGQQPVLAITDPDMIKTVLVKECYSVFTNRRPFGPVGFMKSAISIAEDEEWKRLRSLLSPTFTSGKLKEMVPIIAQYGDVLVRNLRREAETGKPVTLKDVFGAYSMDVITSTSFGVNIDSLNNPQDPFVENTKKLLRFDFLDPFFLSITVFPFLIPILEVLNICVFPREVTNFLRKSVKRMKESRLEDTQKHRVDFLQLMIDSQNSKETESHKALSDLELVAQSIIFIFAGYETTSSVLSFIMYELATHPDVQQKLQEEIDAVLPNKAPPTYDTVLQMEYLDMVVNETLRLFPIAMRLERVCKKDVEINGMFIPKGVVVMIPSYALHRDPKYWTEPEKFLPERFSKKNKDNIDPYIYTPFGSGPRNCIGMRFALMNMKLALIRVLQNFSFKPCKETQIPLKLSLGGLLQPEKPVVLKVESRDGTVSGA

[18] = test system: BJ; assay: cytotoxicity toward BJ-TERT fibroblasts, dose response, cell-based, RAS-independent, luminescence (AID 1933); assay type: functional; conditions: Homo sapiens
[19] = test system: BJ; assay: cytotoxicity toward BJ-TERT-LT-ST fibroblasts, dose response, cell-based, RAS-independent, luminescence (AID 1935); assay type: functional; conditions: Homo sapiens;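 further: BJ fibroblasts immortalized with TERT plus LT and ST oncogenes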
[20] = cytotoxicity toward DRD oncogenic fibroblasts, dose response, cell-based, non-viral oncogenic, luminescence (AID 1934); assay type: functional; conditions: Homo sapiens
[21] = biological target: T3, Microphthalmia-associated transcription factor (Homo sapiens, UniProt O75030); assay: TRPM1 promoter luciferase signal decrease, dose response, MITF inhibitor project, cell-based, SK-MEL-5, cherry-picked, set 3 (AID 493073); assay type: functional
T3 sequence (O75030 whole entry): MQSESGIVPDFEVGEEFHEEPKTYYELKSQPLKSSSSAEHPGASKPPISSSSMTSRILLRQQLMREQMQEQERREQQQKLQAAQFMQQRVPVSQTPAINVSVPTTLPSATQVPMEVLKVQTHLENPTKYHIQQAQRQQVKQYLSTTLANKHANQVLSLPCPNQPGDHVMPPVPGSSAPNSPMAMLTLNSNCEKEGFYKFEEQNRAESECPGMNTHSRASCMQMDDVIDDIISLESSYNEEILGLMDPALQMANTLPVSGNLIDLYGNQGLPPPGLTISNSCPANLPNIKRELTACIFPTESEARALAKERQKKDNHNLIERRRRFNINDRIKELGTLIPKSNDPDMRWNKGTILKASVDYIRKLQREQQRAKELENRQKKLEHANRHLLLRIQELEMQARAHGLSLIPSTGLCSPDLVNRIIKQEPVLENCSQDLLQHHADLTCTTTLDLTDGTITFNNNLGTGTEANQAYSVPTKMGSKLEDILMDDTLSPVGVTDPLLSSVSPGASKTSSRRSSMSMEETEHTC

[22] = test system: Vero; assay: cells; assay type: functional; conditions: Chlorocebus sabaeus
[23] = biological target: T4, Caspase-6 (Homo sapiens, UniProt P55212); assay: human caspase-6 inhibitors, dose response, biochemical, VEID-R110 fluorescence, cherry-pick (AID 720632)
T4 sequence (P55212 whole entry): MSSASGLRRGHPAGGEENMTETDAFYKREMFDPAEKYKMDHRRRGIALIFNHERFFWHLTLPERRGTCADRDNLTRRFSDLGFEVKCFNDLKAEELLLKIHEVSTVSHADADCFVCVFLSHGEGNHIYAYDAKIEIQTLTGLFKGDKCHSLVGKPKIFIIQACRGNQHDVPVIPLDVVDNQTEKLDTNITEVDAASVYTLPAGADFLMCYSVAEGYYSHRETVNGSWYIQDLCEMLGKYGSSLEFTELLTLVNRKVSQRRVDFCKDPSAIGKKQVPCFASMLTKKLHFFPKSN

[24] = A549 cell cytotoxicity, dose response, cytotoxicity control, plate reader, cherry-pick, antagonist series (AID 743412); assay type: functional, cell-based
[25] = HepG2 cell cytotoxicity, dose response, cytotoxicity control, plate reader, cherry-pick, antagonist series (AID 743416); assay type: functional, cell-based
[26] = LGR2 antagonists, dose response, cell-based, HEK293, CRE-luciferase reporter, cherry pick, set 2 (AID 743343); assay type: functional;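 further: transfected cells were stimulated with diluted bursicon conditioned medium after compound addition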
[27] = MC4R antagonists, dose response, counter-screen for LGR2 antagonist project, cell-based, plate reader, cherry pick (AID 743444); assay type: functional;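 further: transfected HEK 293 cells stimulated with alpha-MSH peptide; potency of inhibitors of the alpha-MSH evoked signal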
[28] = HEK293 cell cytotoxicity, dose response, cytotoxicity control, plate reader, cherry-picked samples (AID 743446); assay type: functional, cell-based
[29] = test system: Streptococcus sp. 'group A'; assay: growth inhibition of control SK(-) GAS strain, dose response, counter-screen for streptokinase expression inhibitor project, luminescence, kanamycin, BacTiterGlo, confirmation (AID 1900); assay type: functional, organism-based
[30] = cells; assay type: functional, cell-based
[31] = cells; assay type: functional, cell-based; remark: listed apart in the source
[32] = test system: Streptococcus; assay: Group A Streptococcus viability loss, dose response, counter-screen for streptokinase expression inhibitor project, luminescence, BacTiterGlo (AID 1915); assay type: functional, organism-based;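 further: potency for reduction of bacterial viability or growth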
[33] = biological target: Nonstructural protein 1 (Influenza A virus, UniProt Q194T2); assay type: functional, Influenza A virus (A/California/07/2009(H1N1))
Nonstructural protein 1, sequence (Q194T2 whole entry, the tested form may be a part): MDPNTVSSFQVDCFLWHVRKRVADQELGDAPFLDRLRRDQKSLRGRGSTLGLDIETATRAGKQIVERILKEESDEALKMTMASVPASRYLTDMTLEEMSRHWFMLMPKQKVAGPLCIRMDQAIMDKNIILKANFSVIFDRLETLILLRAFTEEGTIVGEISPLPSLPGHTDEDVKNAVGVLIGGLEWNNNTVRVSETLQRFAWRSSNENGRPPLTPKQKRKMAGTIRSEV

[34] = biological target: T5, Carboxy-terminal domain RNA polymerase II polypeptide A small phosphatase 1 (Homo sapiens, UniProt Q9GZU7); assay: inhibitors of CTDSP1, concentration-response testing, biochemical assay, absorbance-based, actives from ultra-high-throughput screening (AID 540297); assay type: functional
T5 sequence (Q9GZU7 whole entry): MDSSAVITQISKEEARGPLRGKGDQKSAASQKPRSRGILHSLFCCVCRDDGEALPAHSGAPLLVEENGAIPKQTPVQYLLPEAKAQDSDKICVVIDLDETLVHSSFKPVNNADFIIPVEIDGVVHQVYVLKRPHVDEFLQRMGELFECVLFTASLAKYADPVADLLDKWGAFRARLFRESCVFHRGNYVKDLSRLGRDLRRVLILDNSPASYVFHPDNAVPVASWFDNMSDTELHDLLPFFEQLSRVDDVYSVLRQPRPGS

COc1ccc(NC(=O)N2CCCCN3[C@H](CO)[C@H](c4ccc(C#Cc5ccccn5)cc4)[C@@H]3C2)cc1
AC50 [1]: 0.109 µM (active) | AC50 [2]: 0.301 µM (active) | AC50 [3]: 0.131 µM (active) | AC50 [4]: 0.109 µM (active)

CN1CCN(S(=O)(=O)c2cccc(C(=O)N(C)CC(=O)Nc3ccc(F)c(F)c3F)c2)CC1
IC50 [5]: 3.94 µM (active) | IC50 [6]: 5.4 µM (active)

C=CCOc1ccc2c(c1)C(=NO)c1cc(OCC=C)ccc1-2
CC50 [7]: > 40 µM (active) | CC50 [8]: > 40 µM (active)

O=C(Nc1ncc(Cc2cc(Cl)ccc2Cl)s1)c1ccc([N+](=O)[O-])cc1
EC50 [9]: 1.31 µM (active) | EC50 [10]: > 30 µM (not active) | AC50 [11]: 5.62 µM (inconclusive) | AC50 [12]: inconclusive

Cc1cccc(NC(=O)N(Cc2cc3cc(C)ccc3[nH]c2=O)CC2COCCO2)c1 (configuration not stated)
IC50 [13]: 45.9 µM (active)

Cc1ccc(Nc2nc(-c3c(C)nc4ncccn34)cs2)cc1
EC50 [14]: 60.6 µM (active) | IC50 [15]: 36.5 µM (inactive) | AC50 [16]: 0.0316 µM (inconclusive) | AC50 [12]: inconclusive

Cc1ccc(S(=O)(=O)N2CCC(C(=O)NCCCOC(C)C)CC2)cc1
AC50 [17]: 25.1 µM (inconclusive) | AC50 [12]: inconclusive

O=C(N/N=C/C1CCCCC1)c1ccccn1
AC50 [11]: 17.8 µM (inconclusive) | AC50 [12]: inconclusive

CCc1nc2cc(Cc3ccc4[nH]c(CC)nc4c3)ccc2[nH]1
CC50 [8]: 15.5 µM (active)

O=S(=O)(c1ccc(F)cc1)c1snnc1-c1ccccc1
EC50 [18]: 4.69 µM (inconclusive) | EC50 [14]: 6.66 µM (inconclusive) | EC50 [19]: 6.51 µM (inconclusive) | EC50 [20]: 7.55 µM (active) | AC50 [21]: 15.1 µM (active) | CC50 [22]: 6.75 µM (active) | AC50 [23]: 6.26 µM (active) | AC50 [24]: 11.1 µM (active) | AC50 [25]: 46.5 µM (active) | AC50 [26]: 9.39 µM (active) | AC50 [27]: 5.8 µM (active) | AC50 [28]: 4.15 µM (active)

CC(C)CNC(=O)CCCc1c[nH]c2ccccc12.O=C(O)C(=O)O
AC50 [12]: inconclusive

O=C(N/N=C/c1cc(Br)ccc1O)c1ccncc1
IC50 [13]: 7.95 µM (active) | EC50 [29]: 3 µM (active) | EC50 [30]: 17.7 µM (active) | EC50 [31]: > 350 µM (not active) | EC50 [32]: 3.78 µM (active) | IC50 [33]: 5.51 µM (active) | AC50 [21]: 9.36 µM (active)

CSc1nnc(-c2ccncc2)n1CCCN1CCCC1=O
IC50 [5]: 2.76 µM (active) | IC50 [6]: 3.35 µM (active)

Cc1ccc(NC(=O)C(C)N2C(=O)c3ccccc3C2=O)cc1S(=O)(=O)N1CCOCC1 (configuration not stated)
IC50 [13]: 115 µM (active)

COc1ccc2c3c(n(C)c2c1)[C@@H](CO)N(CC1CCCCC1)CC31CCN(Cc2nccs2)CC1
AC50 [1]: 0.835 µM (active) | AC50 [2]: 1.12 µM (active) | AC50 [3]: 1.03 µM (active) | AC50 [4]: 0.891 µM (active)

C[n+]1ccc(C(=O)Nc2ccccc2Cl)cc1
IC50 [5]: 2.01 µM (active) | IC50 [6]: 1.72 µM (active) | IC50 [34]: 7.68 µM (active)
